Laboratory results from ChEMBL document CHEMBL5055644, “Cysteine derivatives as acetyl lysine mimics to inhibit zinc-dependent histone deacetylases for treating cancer” (Eur J Med Chem, 2021).
Activity calls are given as the source filed them.

How the values were obtained:
[1] = Acute toxicity in BALB/c mouse assessed as maximum tolerated dose; settings: in vivo
A549 [2] = experiment: Antitumour activity against human A549 cells xenografted in BALB/c mouse assessed as tumor growth inhibition at 25 mg/kg,iv administered for 3 weeks relative to control; type: functional; settings: A549, 504 h, read-out: TGI
K562 [3] = experiment: Induction of apoptosis in human K562 cells assessed as downregulation of Bcl-2 protein at 10 uM measured after 8 hrs by Western blot analysis; type: functional, cell-based
K562 [4] = experiment: Induction of apoptosis in human K562 cells assessed as increased cleaved caspase 3 at 10 uM measured after 8 hrs by Western blot analysis; type: functional, cell-based
A549 [5] = experiment: Antitumor activity against human A549 cells xenografted in BALB/c mouse assessed as tumor growth inhibition at high dose when administered intratumorally for 21 days relative to control; type: functional; settings: route it(Intratumoral); time 21 day
Mus musculus [6] = experiment: Toxicity in BALB/c mouse xenografted with human A549 cells assessed as effect on body weight at 0.75 to 1.5 mg, IT(Intratumoral) measured after 21 days; type: organism-based; settings: in vivo, other, 504 h, dose 0.75-1.5 mg, time 21 day
A549 [7] = experiment: Upregulation of p21 in human A549 cells up to 10 uM measured after 8 hrs by Western blot analysis; type: functional, cell-based
[8] = target: Protein deacetylase HDAC6 (Mus musculus) (UniProt Q9Z2V5); experiment: In vivo inhibition of HDAC6 in BALB/c mouse xenografted with human A549 cells assessed as increase in alpha tubulin acetylation at 25 to 50 mg/kg, iv administered for 3 weeks by immunohistochemical analysis; type: functional, organism-based; settings: dose 25-50 mg/kg
Chain of Protein deacetylase HDAC6 (Mus musculus) (Q9Z2V5 whole entry): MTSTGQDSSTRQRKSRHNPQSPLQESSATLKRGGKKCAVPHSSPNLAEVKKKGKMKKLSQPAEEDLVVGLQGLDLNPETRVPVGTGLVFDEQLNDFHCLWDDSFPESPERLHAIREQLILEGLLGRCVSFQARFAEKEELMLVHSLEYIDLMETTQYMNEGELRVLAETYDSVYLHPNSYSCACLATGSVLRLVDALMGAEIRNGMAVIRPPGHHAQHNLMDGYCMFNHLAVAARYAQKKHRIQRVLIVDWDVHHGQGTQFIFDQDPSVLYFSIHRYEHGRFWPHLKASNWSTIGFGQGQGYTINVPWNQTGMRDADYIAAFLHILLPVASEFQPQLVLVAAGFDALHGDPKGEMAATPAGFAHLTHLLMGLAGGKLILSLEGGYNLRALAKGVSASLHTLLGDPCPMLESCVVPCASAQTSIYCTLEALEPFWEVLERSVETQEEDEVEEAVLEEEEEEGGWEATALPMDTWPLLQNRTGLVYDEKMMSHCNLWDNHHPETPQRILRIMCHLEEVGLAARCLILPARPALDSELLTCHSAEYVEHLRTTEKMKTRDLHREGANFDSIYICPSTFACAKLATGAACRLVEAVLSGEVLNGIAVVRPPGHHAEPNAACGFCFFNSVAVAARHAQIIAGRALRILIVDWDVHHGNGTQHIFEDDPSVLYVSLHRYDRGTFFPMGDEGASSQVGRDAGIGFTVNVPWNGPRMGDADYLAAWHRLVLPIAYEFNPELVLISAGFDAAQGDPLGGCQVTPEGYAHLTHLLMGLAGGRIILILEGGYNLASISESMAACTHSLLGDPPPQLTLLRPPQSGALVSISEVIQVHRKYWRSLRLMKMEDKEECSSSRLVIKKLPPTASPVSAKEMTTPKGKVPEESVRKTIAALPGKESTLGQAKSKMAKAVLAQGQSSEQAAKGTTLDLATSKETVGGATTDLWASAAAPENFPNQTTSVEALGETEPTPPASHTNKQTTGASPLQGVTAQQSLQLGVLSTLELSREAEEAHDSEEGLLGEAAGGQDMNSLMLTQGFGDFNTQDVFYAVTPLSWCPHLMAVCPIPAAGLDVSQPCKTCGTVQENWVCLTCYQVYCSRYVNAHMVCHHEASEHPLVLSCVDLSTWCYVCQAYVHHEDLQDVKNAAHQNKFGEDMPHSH

Mus musculus [9] = experiment: Toxicity in BALB/c mouse xenografted with human A549 cells assessed as effect on body weight at 25 to 50 mg/kg, iv measured after 21 days; type: organism-based; settings: in vivo, 504 h, dose 25-50 mg/kg, time 21 day
A549 [10] = experiment: Induction of apoptosis in human A549 cells at 1 to 10 uM after 48 hrs by Annexin-V/propidium iodide staining based flow cytometric analysis; type: functional, cell-based; settings: dose 1-10 µM
A549 [11] = experiment: Induction of cell cycle arrest in human A549 cells assessed as increase in accumulation at G1/G0 phase measured after 48 hrs by flow cytometry analysis; type: functional, cell-based; settings: dose 1-10 µM
A549 [12] = experiment: Antitumor activity against human A549 cells xenografted in BALB/c mouse assessed as tumor growth inhibition at low dose when administered intratumorally for 21 days relative to control; type: functional; settings: route it(Intratumoral); time 21 day
Mus musculus [13] = experiment: In vivo inhibition of HDAC in BALB/c mouse xenografted with human A549 cells assessed as increase in H3 histone at 25 to 50 mg/kg, iv administered for 3 weeks by immunohistochemical analysis; type: functional, organism-based; settings: dose 25-50 mg/kg
K562 [14] = experiment: Induction of apoptosis in human K562 cells assessed as upregulation of BaX protein expression at 10 uM measured after 8 hrs by Western blot analysis; type: functional, cell-based
K562 [15] = experiment: Induction of apoptosis in human K562 cells assessed as increased cleaved caspase 9 at 10 uM measured after 8 hrs by Western blot analysis; type: functional, cell-based
[16] = target: Class 1 histone deacetylase (Homo sapiens) (UniProt Q13547+O15379+Q92769+Q9BY41); experiment: Inhibition of class 1 HDAC in human A549 cells assessed as increase in histone H3/H4 acetylation at 10 uM measured after 8 hrs by Western blot analysis; type: cell-based
Chain of Class 1 histone deacetylase (Homo sapiens) (O15379 whole entry, looked up): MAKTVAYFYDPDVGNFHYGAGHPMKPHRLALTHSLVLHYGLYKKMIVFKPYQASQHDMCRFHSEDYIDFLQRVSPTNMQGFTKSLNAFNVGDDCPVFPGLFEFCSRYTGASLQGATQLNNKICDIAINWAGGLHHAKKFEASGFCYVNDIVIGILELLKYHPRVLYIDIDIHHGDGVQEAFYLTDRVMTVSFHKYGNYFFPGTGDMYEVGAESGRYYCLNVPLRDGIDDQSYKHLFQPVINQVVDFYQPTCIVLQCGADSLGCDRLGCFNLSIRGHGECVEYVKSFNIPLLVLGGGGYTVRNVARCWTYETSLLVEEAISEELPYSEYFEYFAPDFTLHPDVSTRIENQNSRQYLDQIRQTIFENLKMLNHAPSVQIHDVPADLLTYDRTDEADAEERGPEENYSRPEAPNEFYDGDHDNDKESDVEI
Chain of Class 1 histone deacetylase (Homo sapiens) (Q13547 whole entry, looked up): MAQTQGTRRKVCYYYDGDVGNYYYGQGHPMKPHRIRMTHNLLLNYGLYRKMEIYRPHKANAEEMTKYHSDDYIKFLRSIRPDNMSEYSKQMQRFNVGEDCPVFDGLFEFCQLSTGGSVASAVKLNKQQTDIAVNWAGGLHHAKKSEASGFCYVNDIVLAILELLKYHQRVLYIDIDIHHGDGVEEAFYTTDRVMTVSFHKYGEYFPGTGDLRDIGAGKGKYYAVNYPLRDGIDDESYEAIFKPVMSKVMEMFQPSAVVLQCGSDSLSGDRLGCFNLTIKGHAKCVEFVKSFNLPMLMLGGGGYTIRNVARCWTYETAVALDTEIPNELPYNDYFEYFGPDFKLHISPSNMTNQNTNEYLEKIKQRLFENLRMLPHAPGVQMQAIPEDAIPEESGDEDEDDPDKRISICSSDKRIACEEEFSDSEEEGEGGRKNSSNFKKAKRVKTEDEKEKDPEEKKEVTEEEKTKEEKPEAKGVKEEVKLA
Chain of Class 1 histone deacetylase (Homo sapiens) (Q92769 whole entry, looked up): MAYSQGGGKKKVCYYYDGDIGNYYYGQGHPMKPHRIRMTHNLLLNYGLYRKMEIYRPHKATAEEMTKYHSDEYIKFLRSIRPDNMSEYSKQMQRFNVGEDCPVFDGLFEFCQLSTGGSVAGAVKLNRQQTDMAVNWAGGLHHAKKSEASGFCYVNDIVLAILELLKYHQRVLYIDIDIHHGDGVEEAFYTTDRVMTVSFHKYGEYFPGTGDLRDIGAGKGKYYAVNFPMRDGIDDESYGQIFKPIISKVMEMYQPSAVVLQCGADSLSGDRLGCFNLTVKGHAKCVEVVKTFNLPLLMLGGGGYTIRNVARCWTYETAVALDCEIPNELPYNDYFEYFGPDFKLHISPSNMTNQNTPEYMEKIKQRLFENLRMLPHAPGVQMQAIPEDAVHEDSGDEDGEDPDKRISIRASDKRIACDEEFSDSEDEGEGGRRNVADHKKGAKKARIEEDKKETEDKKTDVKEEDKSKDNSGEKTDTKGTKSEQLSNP
Chain of Class 1 histone deacetylase (Homo sapiens) (Q9BY41 whole entry, looked up): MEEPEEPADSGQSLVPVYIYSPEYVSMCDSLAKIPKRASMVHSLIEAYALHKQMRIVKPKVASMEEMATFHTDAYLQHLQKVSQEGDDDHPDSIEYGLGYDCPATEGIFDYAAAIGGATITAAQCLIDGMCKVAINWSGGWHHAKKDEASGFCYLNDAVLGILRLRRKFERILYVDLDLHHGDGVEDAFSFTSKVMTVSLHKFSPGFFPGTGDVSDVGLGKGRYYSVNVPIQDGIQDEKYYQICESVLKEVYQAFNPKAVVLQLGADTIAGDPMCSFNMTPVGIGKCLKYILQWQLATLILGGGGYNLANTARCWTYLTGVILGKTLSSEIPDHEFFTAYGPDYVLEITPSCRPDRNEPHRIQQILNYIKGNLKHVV

A549 [17] = experiment: Antitumour activity against human A549 cells xenografted in BALB/c mouse assessed as tumor growth inhibition at 50 mg/kg,iv administered for 3 weeks relative to control; type: functional; settings: A549, 504 h, read-out: TGI
[18] = target: T1, Protein deacetylase HDAC6 (Homo sapiens) (UniProt Q9UBN7); experiment: Inhibition of HDAC6 in human A549 cells assessed as increase in alpha tubulin acetylation at 10 uM measured after 8 hrs by Western blot analysis; type: cell-based
T1 sequence (whole entry): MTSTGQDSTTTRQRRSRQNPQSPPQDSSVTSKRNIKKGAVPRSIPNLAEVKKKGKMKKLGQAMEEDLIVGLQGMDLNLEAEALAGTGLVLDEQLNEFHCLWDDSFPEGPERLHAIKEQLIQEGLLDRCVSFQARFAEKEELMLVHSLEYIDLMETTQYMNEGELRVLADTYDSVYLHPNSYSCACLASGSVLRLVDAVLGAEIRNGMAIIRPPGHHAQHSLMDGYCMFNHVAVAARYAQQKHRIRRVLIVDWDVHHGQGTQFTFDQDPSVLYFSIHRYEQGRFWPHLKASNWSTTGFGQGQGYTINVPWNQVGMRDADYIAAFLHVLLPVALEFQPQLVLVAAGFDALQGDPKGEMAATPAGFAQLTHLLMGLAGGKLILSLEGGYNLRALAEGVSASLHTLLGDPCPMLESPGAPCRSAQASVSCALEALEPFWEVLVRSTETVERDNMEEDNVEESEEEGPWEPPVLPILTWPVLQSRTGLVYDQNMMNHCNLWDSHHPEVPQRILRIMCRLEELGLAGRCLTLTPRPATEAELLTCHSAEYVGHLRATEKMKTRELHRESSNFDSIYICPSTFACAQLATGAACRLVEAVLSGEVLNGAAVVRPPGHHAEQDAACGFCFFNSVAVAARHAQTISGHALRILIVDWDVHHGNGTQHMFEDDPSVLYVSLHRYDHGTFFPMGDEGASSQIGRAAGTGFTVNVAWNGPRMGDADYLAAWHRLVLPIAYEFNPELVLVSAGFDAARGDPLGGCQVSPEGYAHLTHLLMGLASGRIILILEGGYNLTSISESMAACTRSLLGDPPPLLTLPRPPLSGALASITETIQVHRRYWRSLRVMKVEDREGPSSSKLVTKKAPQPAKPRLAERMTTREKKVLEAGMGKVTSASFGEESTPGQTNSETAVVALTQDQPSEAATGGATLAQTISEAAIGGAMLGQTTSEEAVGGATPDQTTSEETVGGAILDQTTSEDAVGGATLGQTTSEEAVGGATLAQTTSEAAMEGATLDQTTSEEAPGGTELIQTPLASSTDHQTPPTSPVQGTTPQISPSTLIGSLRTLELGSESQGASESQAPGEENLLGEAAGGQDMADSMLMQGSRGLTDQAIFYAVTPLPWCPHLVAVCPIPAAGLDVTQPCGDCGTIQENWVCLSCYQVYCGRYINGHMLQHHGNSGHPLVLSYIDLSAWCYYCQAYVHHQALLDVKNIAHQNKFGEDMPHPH

[19] = target: T1, Protein deacetylase HDAC6 (Homo sapiens); experiment: Inhibition of HDAC6 in human A549 cells assessed as increase in alpha tubulin acetylation measured after 24 hrs by Immunofluorescent assay; type: cell-based
[20] = Acute toxicity in BALB/c mouse assessed as effect on normal behaviour at up to 2000 mg/kg, po; type: organism-based; settings: in vivo
[21] = Acute toxicity in BALB/c mouse assessed as effect on body weight at up to 2000 mg/kg, po; type: organism-based; settings: in vivo

O=C(CCCSC[C@H](NC(=O)c1ccccc1)C(=O)Nc1ccccc1)NO
44%: TGI (A549 [12])
62%: inhibition in vivo at 25 mg/kg (A549 [2])
75%: inhibition in vivo at 50 mg/kg (A549 [17])
100 mg/kg: MTD [1]
Non-Toxic: Activity (Mus musculus [6]) | Activity (Mus musculus [9]) | Activity [20] | Activity [21]
72%: TGI (A549 [5])
active: Activity (K562 [3]) | Activity (K562 [4]) | Activity (A549 [7]) | inhibition [8] | Activity (A549 [10]) | Activity (A549 [11]) Dose-dependent effect | inhibition (Mus musculus [13]) | Activity (K562 [14]) | Activity (K562 [15]) | inhibition [16] | inhibition [18] | inhibition [19] Dose-dependent effect
